According to patent US20250136559A1, “SMO MODULATOR COMPOUNDS” (OMASS THERAPEUTICS LIMITED, priority 2022, published 2025):

How the values were obtained:
Format in all cases: cell-based
mouse SMO^WT = molecular target: T1, mouse SMO^WT (Mus musculus, UniProt P56726); test: Mouse assay: Gli1 qPCR in MEF cells stably expressing mouse SMO WT; conditions: mSHh-treated, 24 hours; for IC50: Gli1 inhibition by qPCR, read-out: Mouse WT pIC50 (converted); for Mouse WT % Inh: percentage Gli1 inhibition
T1 construct: expressed in transfected cells
Procedure: (§1) Cell culture. All materials were purchased from Sigma-Aldrich, unless otherwise stated.
(§2) Compound treatment. […] After 1 hour incubation, cells were treated with assay medium containing mSHh prepared at 2.5× of final assay concentrations specified in the text and incubated for a further 24 hours at 37′C in a humidified 95% air/5% CO2 atmosphere prior to qPCR analysis.
(§3) Cell lysis and one-step qPCR. The Cells-to-CT™ 1-Step TaqMan® Kit was used in conjunction with TaqMan primer-probe assays for the detection of Gli1 (FAM, Mm00494654_m1) and Gusb (VIC, Mm01197698_m1) genes (all purchased from Life Technologies). Following 24 hours cell treatment, spent medium was removed and cells were washed with PBS before the application of lysis and stop solution as per manufacturer's instructions. The qPCR reactions were run in a 384-well PCR plate using master mix prepared according to manufacturer's instructions and cell lysate samples from treatment wells. Real-time PCR amplification was detected using the Bio-Rad CFX384 Touch PCR system. Four experimental replicates (two cell replicates and two qPCR replicates) were performed for each compound concentration tested. Real-time data were analysed using the CFX Maestro software (Bio-Rad) and obtained expression values were converted to percentage Gli1 inhibition by normalising to the average Gli1 expression of mSHh-treated control samples.

mouse SMO^D473H = molecular target: T2, mouse SMO^D473H (Mus musculus, UniProt P56726, D477H); test: Mouse assay: Gli1 qPCR in MEF cells stably expressing mouse SMO D473H; conditions: mSHh-treated, 24 hours; for IC50: Gli1 inhibition by qPCR, read-out: Mouse D473H pIC50 (converted); for Mouse D473H % Inh: percentage Gli1 inhibition
T2 construct: expressed in transfected cells
Procedure: as §1, §2, §3

mouse SMO^W535L = molecular target: T3, mouse SMO^W535L (Mus musculus, UniProt P56726, W539L); test: Mouse assay: Gli1 qPCR in MEF cells stably expressing mouse SMO W535L; conditions: mSHh-treated, 24 hours; for IC50: Gli1 inhibition by qPCR, read-out: Mouse W535L pIC50 (converted); for Mouse W535L % Inh: percentage Gli1 inhibition
T3 construct: expressed in transfected cells
Procedure: as §1, §2, §3

T3 sequence (P56726 33-793 W539L): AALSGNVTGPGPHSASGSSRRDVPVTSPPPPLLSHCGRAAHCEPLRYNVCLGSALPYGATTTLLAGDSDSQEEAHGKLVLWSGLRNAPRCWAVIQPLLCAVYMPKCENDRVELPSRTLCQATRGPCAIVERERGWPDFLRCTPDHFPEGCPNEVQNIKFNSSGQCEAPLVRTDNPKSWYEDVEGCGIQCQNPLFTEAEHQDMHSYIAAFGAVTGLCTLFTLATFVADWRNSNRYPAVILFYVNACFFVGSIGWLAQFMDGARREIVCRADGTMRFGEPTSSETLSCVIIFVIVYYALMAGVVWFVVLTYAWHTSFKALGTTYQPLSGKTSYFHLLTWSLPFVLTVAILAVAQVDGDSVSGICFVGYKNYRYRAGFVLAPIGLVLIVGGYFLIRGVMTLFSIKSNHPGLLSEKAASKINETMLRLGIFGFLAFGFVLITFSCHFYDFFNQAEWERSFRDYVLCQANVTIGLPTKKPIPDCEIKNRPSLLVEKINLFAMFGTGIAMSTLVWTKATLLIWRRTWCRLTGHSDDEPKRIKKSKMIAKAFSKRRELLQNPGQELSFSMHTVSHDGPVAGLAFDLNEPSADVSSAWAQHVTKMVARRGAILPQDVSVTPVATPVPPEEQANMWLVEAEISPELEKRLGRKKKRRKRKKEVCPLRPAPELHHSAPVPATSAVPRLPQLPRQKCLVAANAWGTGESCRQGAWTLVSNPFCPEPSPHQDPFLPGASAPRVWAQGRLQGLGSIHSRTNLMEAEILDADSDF
T2 sequence (P56726 33-793 D477H): as the sequence (P56726 33-793 W539L) above, with D445H, L507W counted along it
T1 sequence (P56726 33-793): as the sequence (P56726 33-793 W539L) above, with L507W counted along it

| IC50 (mouse SMO^WT) [nM] | Mouse WT % Inh (mouse SMO^WT) [%] | IC50 (mouse SMO^D473H) [nM] | Mouse D473H % Inh (mouse SMO^D473H) [%] | IC50 (mouse SMO^W535L) [nM] | Mouse W535L % Inh (mouse SMO^W535L) [%] | SMILES |
| --- | --- | --- | --- | --- | --- | --- |
| 6.31 | 99.2 | 50.1 | 98.6 | 63.1 | 78.6 | Cc1nc(-c2ccc(NC(=O)c3cccc(CN4CCS(=O)(=O)CC4)c3)cc2)oc1C [Example 4-1, N-[4-(4,5-Dimethyl-1,3-oxazol-2-yl)phenyl]-3-[(1,1-dioxo-1,4-thiazinan-4-yl)methyl]benzamide] |
| 0.2 | 99.5 | 3.16 | 98.5 | 12.6 | 79.0 | Cc1oc(-c2ccc(NC(=O)c3ccc(Cl)c(CN4CCS(=O)(=O)CC4)c3)cc2)nc1C1CC1 [Example 4-4, 4-Chloro-N-[4-(4-cyclopropyl-5-methyl-1,3-oxazol-2-yl)phenyl]-3-[(1,1-dioxo-1,4-thiazinan-4-yl)methyl]benzamide] |
| 25.1 | 99.1 | 251 | 98.9 | 126 | 64.8 | O=C(Nc1ccc(-c2nc(Cc3cc4c(cc3Cl)OCO4)n[nH]2)cc1)c1cccc(CN2CCS(=O)(=O)CC2)c1 [Example 3-29, N-[4-[3-[(6-Chloro-1,3-benzodioxol-5-yl)methyl]-1H-1,2,4-triazol-5-yl]phenyl]-3-[(1,1-dioxo-1,4-thiazinan-4-yl)methyl]benzamide] |
| 10 | 99.6 | 39.8 | 99.8 | 158 | 57.8 | Cl.O=C(Nc1ccc(-c2noc(C3CC3)n2)cc1)c1cccc(CN2CCS(=O)(=O)CC2)c1 [Example 4-12, N-[4-(5-Cyclopropyl-1,2,4-oxadiazol-3-yl)phenyl]-3-[(1,1-dioxo-1,4-thiazinan-4-yl)methyl]benzamide] |
| 2 | 98.5 | 100 | 97.4 | 39.8 | 80.5 | Cc1ccc(Cc2n[nH]c(-c3ccc(NC(=O)c4cccc(CN5CCS(=O)(=O)CC5)c4)cc3)n2)cc1C [Example 3-25, N-[4-[5-[(3,4-Dimethylphenyl)methyl]-1H-1,2,4-triazol-3-yl]phenyl]-3-[(1,1-dioxo-1,4-thiazinan-4-yl)methyl]benzamide] |
| 6.31 | 99.3 | 63.1 | 99.4 | 39.8 | 76.6 | O=C(Nc1ccc(-c2cc(Cc3ccccc3)n[nH]2)cc1)c1cccc(CN2CCS(=O)(=O)CC2)c1 [Example 4-21, N-[4-(3-Benzyl-1H-pyrazol-5-yl)phenyl]-3-[(1,1-dioxo-1,4-thiazinan-4-yl)methyl]benzamide] |
| 15.8 | 98.3 | 501 | 87.1 | 251 | 64.8 | O=C(Nc1ccc(-c2nc(Cc3cc(Cl)ccc3Cl)n[nH]2)cc1)c1cccc(CN2CCS(=O)(=O)CC2)c1 [Example 3-26, N-[4-[3-[(2,5-Dichlorophenyl)methyl]-1H-1,2,4-triazol-5-yl]phenyl]-3-[(1,1-dioxo-1,4-thiazinan-4-yl)methyl]benzamide] |
| 10 | 98.2 | 200 | 99.1 | 794 | 74.2 | O=C(Nc1ccc(-c2noc(C3CCCC3)n2)cc1)c1cccc(CN2CCS(=O)(=O)CC2)c1 [Example 4-14, N-[4-(5-Cyclopentyl-1,2,4-oxadiazol-3-yl)phenyl]-3-[(1,1-dioxo-1,4-thiazinan-4-yl)methyl]benzamide] |
| 12.6 | 99.1 | 251 | 97.9 | 100 | 63.9 | O=C(Nc1ccc(-c2nc(-c3cccc(F)c3)n[nH]2)cc1)c1cccc(CN2CCS(=O)(=O)CC2)c1 [Example 3-10, 3-[(1,1-Dioxo-1,4-thiazinan-4-yl)methyl]-N-[4-[3-(3-fluorophenyl)-1H-1,2,4-triazol-5-yl]phenyl]benzamide] |
| 25.1 | 99.1 | 316 | 96.9 | 39.8 | 64.3 | O=C(Nc1ccc(-c2nc(Cc3ccccc3F)n[nH]2)cc1)c1cccc(CN2CCS(=O)(=O)CC2)c1 [Example 3-19, 3-[(1,1-Dioxo-1,4-thiazinan-4-yl)methy]-N-[4-[3-[(2-fluorophenyl)methyl]-1H-1,2,4-triazol-5-yl]phenyl]benzamide] |
| 79.4 | 99.4 | 794 | 97.7 | 316 | 59.7 | O=C(Nc1ccc(-c2nc(Cc3ccc4c(c3)OCCO4)n[nH]2)cc1)c1cccc(CN2CCS(=O)(=O)CC2)c1 [Example 3-28, N-[4-[3-(2,3-Dihydro-1,4-benzodioxin-6-ylmethyl)-1H-1,2,4-triazol-5-yl]phenyl]-3-[(1,1-dioxo-1,4-thiazinan-4-yl)methyl]benzamide] |
| 20 | 98.6 | 158 | 98.0 | 100 | 57.9 | O=C(Nc1ccc(-c2nc(C3CCN(c4ccccc4)C3)n[nH]2)cc1)c1cccc(CN2CCS(=O)(=O)CC2)c1 (stereo not drawn) [Example 3-8, 3-[(1,1-Dioxo-1,4-thiazinan-4-yl)methyl]-N-[4-[3-(1-phenylpyrrolidin-3-yl)-1H-1,2,4-triazol-5-yl]phenyl]benzamide] |
| 6.31 | 99.4 | 100 | 99.0 | 39.8 | 54.3 | O=C(Nc1ccc(-c2nc(Cc3ccccc3)n[nH]2)cc1)c1cccc(CN2CCS(=O)(=O)CC2)c1 [Example 3-17, N-[4-(3-Benzyl-1H-1,2,4-triazol-5-yl)phenyl]-3-[(1,1-dioxo-1,4-thiazinan-4-yl)methyl]benzamide] |
| 100 | 97.5 | 794 | 82.3 | 501 | 64.1 | O=C(Nc1ccc(-c2nc(Cc3ccc(F)cc3)n[nH]2)cc1)c1cccc(CN2CCS(=O)(=O)CC2)c1 [Example 3-21, 3-[(1,1-Dioxo-1,4-thiazinan-4-yl)methy]-N-[4-[3-[(4-fluorophenyl)methyl]-1H-1,2,4-triazol-5-yl]phenyl]benzamide] |
| 20 | 94.4 | 158 | 93.9 | 79.4 | 76.5 | O=C(Nc1ccc(-c2nc(C3CC3)n[nH]2)cc1)c1ccc(F)c(CN2CCS(=O)(=O)CC2)c1 [Example 2-3, N-[4-(5-Cyclopropyl-1H-1,2,4-triazol-3-yl)phenyl]-3-[(1,1-dioxo-1,4-thiazinan-4-yl)methyl]-4-fluorobenzamide] |
| 50.1 | 99.7 | 158 | 99.5 | 158 | 63.8 | Cl.O=C(Nc1ccc(-c2nc(C3CC3)no2)cc1)c1cccc(CN2CCS(=O)(=O)CC2)c1 [Example 4-11, N-[4-(3-Cyclopropyl-1,2,4-oxadiazol-5-yl)phenyl]-3-[(1,1-dioxo-1,4-thiazinan-4-yl)methyl]benzamide] |
| 10 | 98.4 | 100 | 98.5 | 501 | 62.5 | O=C(Nc1ccc(-c2nc(-c3cccc(Cl)c3)n[nH]2)cc1)c1cccc(CN2CCS(=O)(=O)CC2)c1 [Example 3-11, N-[4-[3-(3-Chlorophenyl)-1H-1,2,4-triazol-5-yl]phenyl]-3-[(1,1-dioxo-1,4-thiazinan-4-yl)methyl]benzamide] |
| 0.398 | 98.3 | 5.01 | 98.6 | 15.8 | 65.7 | Cc1c(-c2ccc(NC(=O)c3cccc(CN4CCS(=O)(=O)CC4)c3)cc2)nn(C)c1C1CC1 [Example 4-25, N-[4-(5-Cyclopropyl-1,4-dimethylpyrazol-3-yl)phenyl]-3-[(1,1-dioxo-1,4-thiazinan-4-yl)methyl]benzamide] |
| 25.1 | 98.0 | 200 | 97.7 | 200 | 63.0 | Cl.O=C(Nc1ccc(-c2nc(C3CCC3)n[nH]2)cc1)c1cccc(CN2CCS(=O)(=O)CC2)c1 [Example 3-4, N-[4-(3-Cyclobutyl-1H-1,2,4-triazol-5-yl)phenyl]-3-[(1,1-dioxo-1,4-thiazinan-4-yl)methyl]benzamide] |
